Data taken from ChEMBL document CHEMBL5550146, “Design, synthesis, and biological evaluation of novel sesquiterpene lactone derivatives as PKM2 activators with potent anti-ulcerative colitis activities” (Eur J Med Chem, 2024).
pIC50, pKd: −log10 of the molar value. Calls of active or inactive are those of the source. No cut-off for these calls is given here.

Key:
Pyruvate kinase PKM [1] = target: T1, Pyruvate kinase PKM (Homo sapiens, UniProt P14618); test: Binding affinity to PKM2 (unknown origin) assessed as dissociation constant by SPR analysis
Target sequence in this assay (P14618 whole entry): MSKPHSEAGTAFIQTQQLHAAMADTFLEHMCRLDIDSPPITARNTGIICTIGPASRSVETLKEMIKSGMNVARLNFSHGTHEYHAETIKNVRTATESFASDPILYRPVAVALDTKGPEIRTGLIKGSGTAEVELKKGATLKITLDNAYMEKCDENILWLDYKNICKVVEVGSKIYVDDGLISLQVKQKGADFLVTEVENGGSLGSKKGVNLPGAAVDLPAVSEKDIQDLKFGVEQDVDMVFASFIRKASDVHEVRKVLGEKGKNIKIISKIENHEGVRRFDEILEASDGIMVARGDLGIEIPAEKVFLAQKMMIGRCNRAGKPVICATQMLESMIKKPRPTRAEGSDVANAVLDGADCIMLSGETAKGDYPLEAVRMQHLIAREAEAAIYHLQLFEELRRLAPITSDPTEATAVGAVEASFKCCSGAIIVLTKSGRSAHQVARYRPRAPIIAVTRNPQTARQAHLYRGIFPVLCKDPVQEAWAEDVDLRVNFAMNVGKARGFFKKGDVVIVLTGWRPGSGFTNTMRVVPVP

Mus musculus [2] = test: Antiinflammatory activity in DSS-induced colitis female C57BL/6 mouse model assessed as improvement in goblet cell loss at 5 to 10 mg/kg, ip administered for 12 days with subsequent treatment of DSS for 9 days followed by drinking water for 3 days by H and E staining based analysis; type: functional, organism-based; conditions: dose 5-10 mg/kg, time 12.0 day
[3] = target: Pyruvate kinase PKM (Mus musculus) (UniProt P52480); test: Activation of PKM2 in C57BL/6 mouse Th17 cells differentiated from CD4+ T cells assessed as induction of PKM2 tetramer formation at 0.1 to 1 uM incubated for 48 hrs by immunoblotting based protein cross linking assay; type: cell-based; conditions: filed as activator, dose 0.1-1 µM
[4] = Inhibition of C57BL/6 mouse Th17 cells differentiation from CD4+ T cells assessed as frequency of CD4+ IL-17A+ Th17 cells at 0.1 uM incubated for 96 hrs by flow cytometric analysis (reference value: 23.52 %); type: functional; set-up: scale not given: the % may be the effect or the level left
Th17 [5] = test: Inhibition of C57BL/6 mouse Th17 cell differentiation from CD4+ T cells assessed as reduction in Glut1 protein level; type: functional, cell-based
Pyruvate kinase PKM [6] = target: T1, Pyruvate kinase PKM; test: Binding affinity to PKM2 (unknown origin) assessed as dissociation rate constant (Kd) at 3.125 to 50 uM by SPR analysis
Target sequence in this assay (P14618 whole entry): as above

Th17 [7] = test: Inhibition of C57BL/6 mouse Th17 cell differentiation from CD4+ T cells assessed as reduction in PFK1 protein level; type: functional, cell-based
Th17 [8] = test: Inhibition of C57BL/6 mouse Th17 cell differentiation from CD4+ T cells assessed as reduction in PFK1 mRNA level; type: functional, cell-based
Pyruvate kinase PKM [9] = target: T1, Pyruvate kinase PKM; test: Binding affinity to PKM2 (unknown origin) assessed as association rate constant (Ka) at 3.125 to 50 uM by SPR analysis; conditions: filed as activator, dose 3.125-50 µM
Target sequence in this assay (P14618 2-531 limits assumed): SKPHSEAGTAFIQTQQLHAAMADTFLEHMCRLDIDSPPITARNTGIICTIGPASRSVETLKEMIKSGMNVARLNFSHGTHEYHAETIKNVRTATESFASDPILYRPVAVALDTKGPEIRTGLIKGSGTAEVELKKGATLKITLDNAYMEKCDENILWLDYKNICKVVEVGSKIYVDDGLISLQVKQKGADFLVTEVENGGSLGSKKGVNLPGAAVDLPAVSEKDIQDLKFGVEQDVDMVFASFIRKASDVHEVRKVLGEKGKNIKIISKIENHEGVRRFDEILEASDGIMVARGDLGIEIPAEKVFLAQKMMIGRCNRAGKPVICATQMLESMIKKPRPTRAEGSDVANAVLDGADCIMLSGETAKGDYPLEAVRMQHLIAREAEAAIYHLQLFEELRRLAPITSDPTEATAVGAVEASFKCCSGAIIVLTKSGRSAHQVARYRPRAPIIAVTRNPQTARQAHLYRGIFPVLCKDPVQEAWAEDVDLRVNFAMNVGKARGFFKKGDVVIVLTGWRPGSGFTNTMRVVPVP

Th17 [10] = test: Inhibition of C57BL/6 mouse Th17 cell differentiation from CD4+ T cells assessed as reduction in lactate production at […] to 1 uM incubated for 48 hrs by colorimetric analysis; type: functional, cell-based
Mus musculus [11] = test: Antiinflammatory activity in DSS-induced colitis female C57BL/6 mouse model assessed as improvement in inflammatory cell infiltration at 5 to 10 mg/kg, ip administered for 12 days with subsequent treatment of DSS for 9 days followed by drinking water for 3 days by H and E staining based analysis; type: functional, organism-based; conditions: dose 5-10 mg/kg, time 12.0 day
Pyruvate kinase PKM [12] = target: T1, Pyruvate kinase PKM; test: Covalent binding affinity to Cys423 residue of recombinant human PKM2 at 50 uM incubated for 60 mins by LC-MS/MS analysis; conditions: filed as activator
Target sequence in this assay (P14618 2-531 limits assumed): as above

Th17 [13] = test: Inhibition of C57BL/6 mouse Th17 cell differentiation from CD4+ T cells assessed as reduction in Glut1 mRNA level; type: functional, cell-based
Regulatory T cell [14] = test: Inhibition of C57BL/6 mouse Regulatory T cells differentiation from CD4+ T cells assessed as change in IL-10 mRNA expression at 0.1 to 1 uM incubated for 96 hrs by qPCR analysis; type: functional, cell-based; conditions: dose 0.1-1 µM
[15] = Inhibition of C57BL/6 mouse Regulatory T cells differentiation from CD4+ T cells assessed as frequency of CD4+ Foxp3+ Treg cells at 0.1 uM incubated for 96 hrs by flow cytometric analysis ( Rvb = 24.48 %); type: functional, Regulatory T cell; set-up: scale not given: the % may be the effect or the level left
Mus musculus [16] = test: Antiinflammatory activity in DSS-induced colitis female C57BL/6 mouse model assessed as reduction in body weight loss at 5 to 10 mg/kg, ip administered for 12 days with subsequent treatment of DSS for 9 days followed by drinking water for 3 days; type: functional, organism-based; conditions: dose 5-10 mg/kg, time 12.0 day
Th17 [17] = test: Inhibition of C57BL/6 mouse Th17 cell differentiation from CD4+ T cells assessed as reduction in HK2 protein level; type: functional, cell-based
Pyruvate kinase PKM [18] = target: T1, Pyruvate kinase PKM; test: Activation of recombinant human PKM2 incubated for 40 mins by pyruvate kinase assay
Target sequence in this assay (P14618 whole entry): as the sequence (P14618 whole entry) above

[19] = Inhibition of C57BL/6 mouse Th17 cells differentiation from CD4+ T cells assessed as frequency of CD4+ IL-17A+ Th17 cells at 1 uM incubated for 96 hrs by flow cytometric analysis (reference value: 23.52 %); type: functional; set-up: scale not given: the % may be the effect or the level left
[20] = Inhibition of C57BL/6 mouse Th17 cells differentiation from CD4+ T cells assessed as frequency of CD4+ IL-17A+ Th17 cells at 0.3 uM incubated for 96 hrs by flow cytometric analysis (reference value: 23.52 %); type: functional; set-up: scale not given: the % may be the effect or the level left
Mus musculus [21] = test: Antiinflammatory activity in DSS-induced colitis female C57BL/6 mouse model assessed as improvement in crypt deformation at 5 to 10 mg/kg, ip administered for 12 days with subsequent treatment of DSS for 9 days followed by drinking water for 3 days by H and E staining based analysis; type: functional, organism-based; conditions: dose 5-10 mg/kg, time 12.0 day
[22] = target: Pyruvate kinase PKM (Mus musculus) (UniProt P52480); test: Induction of thermal stabilization of PKM2 in C57BL/6 mouse CD4+ T cells at 1 uM incubated for 4 hrs at 58 to 64 degreeC by CETSA; type: cell-based; conditions: CD4+ T cell
T-cell [23] = test: Antiproliferative activity against concanavalin A-stimulated C57BL/6 mouse T cells measured after 48 hrs by CCK8 assay; type: functional, cell-based; conditions: C57BL/6, T-cell
Th17 [24] = test: Inhibition of C57BL/6 mouse Th17 cell differentiation from CD4+ T cells assessed as reduction in HK2 mRNA level; type: functional, cell-based
Th17 [25] = test: Inhibition of C57BL/6 mouse Th17 cell differentiation from CD4+ T cells assessed as reduction in […] mRNA expression at 0.1 uM incubated for 96 hrs by qPCR analysis; type: functional, cell-based
Th17 [26] = test: Inhibition of C57BL/6 mouse Th17 cell differentiation from CD4+ T cells assessed as reduction in IL-21 mRNA expression at 0.1 uM incubated for 96 hrs by qPCR analysis; type: functional, cell-based
[27] = Inhibition of C57BL/6 mouse Regulatory T cells differentiation from CD4+ T cells assessed as frequency of CD4+ Foxp3+ Treg cells at 0.3 uM incubated for 96 hrs by flow cytometric analysis ( Rvb = 24.48 %); type: functional, Regulatory T cell; set-up: scale not given: the % may be the effect or the level left
Th17 [28] = test: Downregulation of total PKM2 expression in C57BL/6 mouse Th17 cells differentiated from CD4+ T cells at 0.1 to 1 uM incubated for 48 hrs by Western blot analysis; type: functional, cell-based; conditions: dose 0.1-1 µM
Th17 [29] = test: Inhibition of C57BL/6 mouse Th17 cell differentiation from CD4+ T cells assessed as reduction in IL-17a mRNA expression at 0.1 uM incubated for 96 hrs by qPCR analysis; type: functional, cell-based
Mus musculus [30] = test: Antiinflammatory activity in DSS-induced colitis female C57BL/6 mouse model assessed as reduction in shortening of colon length at 5 mg/kg, ip administered for 12 days with subsequent treatment of DSS for 9 days followed by drinking water for 3 days; type: functional, organism-based; conditions: time 12.0 day
Th17 [31] = test: Effect on PKM2 expression in cytoplasm of C57BL/6 mouse Th17 cells differentiated from CD4+ T cells at 0.1 to 1 uM incubated for 48 hrs by Western blot analysis; type: functional, cell-based; conditions: dose 0.1-1 µM
Th17 [32] = test: Inhibition of C57BL/6 mouse Th17 cell differentiation from CD4+ T cells assessed as reduction in RORC mRNA expression at 0.1 uM incubated for 96 hrs by qPCR analysis; type: functional, cell-based
Th17 [33] = test: Inhibition of C57BL/6 mouse Th17 cell differentiation from CD4+ T cells assessed as decrease in glucose consumption incubated for 48 hrs by colorimetric analysis; type: functional, cell-based; conditions: dose 1.0 µM
T-cell [34] = test: Potency index, ratio of Parthenolide IC50 to test compound IC50 for antiproliferative activity against concanavalin A-stimulated C57BL/6 mouse T cells measured after 48 hrs by CCK8 assay; type: functional
Regulatory T cell [35] = test: Inhibition of C57BL/6 mouse Regulatory T cells differentiation from CD4+ T cells assessed as change in Foxp3 mRNA expression at 0.1 to 1 uM incubated for 96 hrs by qPCR analysis; type: functional, cell-based; conditions: dose 0.1-1 µM
Mus musculus [36] = test: Antiinflammatory activity in DSS-induced colitis female C57BL/6 mouse model assessed as reduction in disease activity index score at 5 to 10 mg/kg, ip administered for 12 days with subsequent treatment of DSS for 9 days followed by drinking water for 3 days; type: functional, organism-based; conditions: dose 5-10 mg/kg, time 12.0 day
[37] = Inhibition of C57BL/6 mouse Regulatory T cells differentiation from CD4+ T cells assessed as frequency of CD4+ Foxp3+ Treg cells at 1 uM incubated for 96 hrs by flow cytometric analysis ( Rvb = 24.48 %); type: functional, Regulatory T cell; set-up: scale not given: the % may be the effect or the level left
[38] = target: Pyruvate kinase PKM (Mus musculus) (UniProt P52480); test: Inhibition of PKM2 dimer nuclear translocation in C57BL/6 mouse Th17 cells differentiated from CD4+ T cells assessed as decrease in PKM2 expression in nucleus at 0.1 to 1 uM incubated for 48 hrs by Western blot analysis; type: cell-based; conditions: dose 0.1-1 µM

Sequence of Pyruvate kinase PKM (Mus musculus) (P52480 whole entry): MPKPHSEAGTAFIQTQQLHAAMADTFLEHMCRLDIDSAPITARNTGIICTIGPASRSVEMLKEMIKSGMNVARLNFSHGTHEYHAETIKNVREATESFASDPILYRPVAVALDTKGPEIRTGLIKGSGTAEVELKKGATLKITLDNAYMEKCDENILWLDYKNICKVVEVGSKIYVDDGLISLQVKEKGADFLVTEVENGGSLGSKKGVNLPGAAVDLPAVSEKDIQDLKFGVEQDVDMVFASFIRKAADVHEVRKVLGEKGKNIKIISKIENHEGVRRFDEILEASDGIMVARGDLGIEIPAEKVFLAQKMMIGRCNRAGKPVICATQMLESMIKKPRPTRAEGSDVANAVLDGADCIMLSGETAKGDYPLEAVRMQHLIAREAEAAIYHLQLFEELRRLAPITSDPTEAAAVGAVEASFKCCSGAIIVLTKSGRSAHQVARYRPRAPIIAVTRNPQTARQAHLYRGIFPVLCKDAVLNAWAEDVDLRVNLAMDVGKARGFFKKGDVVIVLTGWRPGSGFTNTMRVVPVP

- pKd (Pyruvate kinase PKM [1]): 5.61
- Activity [3]: Active
- Kd (Pyruvate kinase PKM [6]): 0.028 s⁻¹
- Ka (Pyruvate kinase PKM [9]): 1.12 10^4/Ms
- Activity (Pyruvate kinase PKM [12]): Active
- AC50 (Pyruvate kinase PKM [18]): 144 nM
- Activity [22]: Active
- inhibition [38]: Active
SMILES: C=C1C(=O)O[C@H]2[C@H]1CC/C(COC(F)(F)F)=C\CC[C@@]1(C)O[C@@H]21
- Activity (Mus musculus [2]): Active
- Activity [4]: 17.11%
- inhibition (Th17 [5]): Active
- inhibition (Th17 [7]): Active
- inhibition (Th17 [8]): Active
- inhibition (Th17 [10]): Active
- Activity (Mus musculus [11]): Active
- inhibition (Th17 [13]): Active
- inhibition (Regulatory T cell [14]): inactive
- Activity [15]: 23.97%
- Activity (Mus musculus [16]): Active
- inhibition (Th17 [17]): Active
- Activity [19]: 9.84%
- Activity [20]: 14.67%
- Activity (Mus musculus [21]): Active
- pIC50 (T-cell [23]): 6.37
- inhibition (Th17 [24]): Active
- inhibition (Th17 [25]): Active
- inhibition (Th17 [26]): Active
- Activity [27]: 24.84%
- Activity (Th17 [28]): Active
- inhibition (Th17 [29]): Active
- Activity (Mus musculus [30]): Active
- Activity (Th17 [31]): inactive
- inhibition (Th17 [32]): Active
- inhibition (Th17 [33]): Dose-Dependent Effect
- Ratio IC50 (T-cell [34]): 5
- inhibition (Regulatory T cell [35]): inactive
- Activity (Mus musculus [36]): Active
- Activity [37]: 25.4%
